Laboratory results reported in US20050267158A1, “Polymorphic and amorphous forms of 2,5-dimethyl-2H-pyrazole-3-carboxylic acid {2-fluoro-5-[3-((E)-2 pyridin-2-YL-vinyl)-1H-indazol-6-ylamino]-phenyl}-amide” (AGOURON PHARMACEUTICALS, INC., priority 2004, published 2005).
Converted amounts (≈) assume the structure as drawn.

Experiments:
Type in all cases: physicochemical
Aqueous solubility = conditions: for solubility: thermodynamic from solid
From the text: (§1) The present invention provides several polymorph crystalline forms and an amorphous form of the compound of Formula I. Each crystalline or amorphous form of the compound can be characterized by one or more of the following: X-ray powder diffraction pattern (i.e., X-ray diffraction peaks at various diffraction angles (2θ)), melting point onset (and onset of dehydration for hydrated forms) as illustrated by endotherms of a Differential Scanning Calorimetry (DSC) thermogram, Raman spectral diagram pattern, aqueous solubility, light stability under International Conference on Harmonization (ICH) high intensity light conditions, and physical and chemical storage stability.

[1] = Light stability under ICH high intensity light conditions
From the text: as §1

[2] = Physical and chemical storage stability
From the text: as §1

[3] = Hygroscopicity / form conversion under ambient humidity; conditions: for conversion of solid form: ambient humidity
[4] = aqueous medium, pH 2, pH 2, aqueous buffer, pH 2

For `Cc1cc(C(=O)Nc2cc(Nc3ccc4c(/C=C/c5ccccn5)n[nH]c4c3)ccc2F)n(C)n1` [Form I, 2,5-Dimethyl-2H-pyrazole-3-carboxylic acid {2-fluoro-5-[3-((E)-2-pyridin-2-yl-vinyl)-1H-indazol-6-ylamino]-phenyl}-amide], the solubility (Aqueous solubility; aqueous medium (pH 7.4), pH 7.4, aqueous buffer, pH 7.4) was ~0.4 µg/mL (≈ 0.856 µM), the solubility (Aqueous solubility; [4]) was ~39 µg/mL (≈ 83.4 µM) and the light stability [1] was “light-stable”. For the same molecule, the time chemically stable ([2]; 80° C. and 40° C./75% RH) was “at least 14 days”.
For `Cc1cc(C(=O)Nc2cc(Nc3ccc4c(/C=C/c5ccccn5)n[nH]c4c3)ccc2F)n(C)n1` [Form III, 2,5-Dimethyl-2H-pyrazole-3-carboxylic acid {2-fluoro-5-[3-((E)-2-pyridin-2-yl-vinyl)-1H-indazol-6-ylamino]-phenyl}-amide], the aqueous solubility (Aqueous solubility; pH 2) was “about 10 μg/mL”, the aqueous solubility (Aqueous solubility; pH 7.4) was “about 0.6 μg/mL” and the light stability [1] was “light-stable”.
In the case of `Cc1cc(C(=O)Nc2cc(Nc3ccc4c(/C=C/c5ccccn5)n[nH]c4c3)ccc2F)n(C)n1` [Form Ibm-2, 2,5-Dimethyl-2H-pyrazole-3-carboxylic acid {2-fluoro-5-[3-((E)-2-pyridin-2-yl-vinyl)-1H-indazol-6-ylamino]-phenyl}-amide], the “conversion of solid form” value [3] was “will convert to Form Ib upon complete hydration”.
For `Cc1cc(C(=O)Nc2cc(Nc3ccc4c(/C=C/c5ccccn5)n[nH]c4c3)ccc2F)n(C)n1` [Form VI, 2,5-Dimethyl-2H-pyrazole-3-carboxylic acid {2-fluoro-5-[3-((E)-2-pyridin-2-yl-vinyl)-1H-indazol-6-ylamino]-phenyl}-amide], the hygroscopicity [3] was “very hygroscopic” and the “conversion of solid form” value [3] was “readily converted back to Form Ib”.
For `Cc1cc(C(=O)Nc2cc(Nc3ccc4c(/C=C/c5ccccn5)n[nH]c4c3)ccc2F)n(C)n1` [Form Ia, 2,5-Dimethyl-2H-pyrazole-3-carboxylic acid {2-fluoro-5-[3-((E)-2-pyridin-2-yl-vinyl)-1H-indazol-6-ylamino]-phenyl}-amide], the light stability [1] was “light-stable”.
For `Cc1cc(C(=O)Nc2cc(Nc3ccc4c(/C=C/c5ccccn5)n[nH]c4c3)ccc2F)n(C)n1` [Form V, 2,5-Dimethyl-2H-pyrazole-3-carboxylic acid {2-fluoro-5-[3-((E)-2-pyridin-2-yl-vinyl)-1H-indazol-6-ylamino]-phenyl}-amide], the solubility (Aqueous solubility; aqueous medium, pH 2, aqueous buffer, pH 2) was ~8 µg/mL (≈ 17.1 µM), the aqueous solubility (Aqueous solubility; pH 7.4) was “about 0.2 μg/mL” and the light stability [1] was “light-stable”.
With `Cc1cc(C(=O)Nc2cc(Nc3ccc4c(/C=C/c5ccccn5)n[nH]c4c3)ccc2F)n(C)n1` [Form II, 2,5-Dimethyl-2H-pyrazole-3-carboxylic acid {2-fluoro-5-[3-((E)-2-pyridin-2-yl-vinyl)-1H-indazol-6-ylamino]-phenyl}-amide] the solubility (Aqueous solubility; aqueous medium at pH 2, pH 2, aqueous buffer, pH 2) was ~19 µg/mL (≈ 40.6 µM), the solubility (Aqueous solubility; aqueous medium at pH 7.4, pH 7.4, aqueous buffer, pH 7.4) was ~0.7 µg/mL (≈ 1.5 µM) and the light stability [1] was “light-stable”.
With `Cc1cc(C(=O)Nc2cc(Nc3ccc4c(/C=C/c5ccccn5)n[nH]c4c3)ccc2F)n(C)n1` [Form IV, 2,5-Dimethyl-2H-pyrazole-3-carboxylic acid {2-fluoro-5-[3-((E)-2-pyridin-2-yl-vinyl)-1H-indazol-6-ylamino]-phenyl}-amide] the solubility (Aqueous solubility; [4]) was ~7 µg/mL (≈ 15 µM) and the light stability [1] was “light-stable”.
In the case of `Cc1cc(C(=O)Nc2cc(Nc3ccc4c(/C=C/c5ccccn5)n[nH]c4c3)ccc2F)n(C)n1` [Form Ib, 2,5-Dimethyl-2H-pyrazole-3-carboxylic acid {2-fluoro-5-[3-((E)-2-pyridin-2-yl-vinyl)-1H-indazol-6-ylamino]-phenyl}-amide], the “physical and chemical stability” value ([2]; 60° C. and 40° C./75% RH) was “physically and chemically stable for at least three months”.
